# Reference: article PMC12363342, “Investigating the N-terminal linker histone H1 subtypes as substrates for JmjC lysine demethylases” (RSC Chemical Biology, 2025)
# Square brackets hold non-standard residues; d marks the D form. Ends that are not written are not given here. Lys(Me3) = C[N+](C)(C)CCCC[C@H](N)C(=O)O
# What was measured:
# KDM4D = target: T1, KDM4D (Homo sapiens, UniProt Q6B0I6); assay: formaldehyde dehydrogenase (FDH)-coupled demethylation assay, KDM4D; type: biochemical; details: FDH-coupled fluorescence assay, KDM4D (400 nM), H1 peptide 1–50 μM, HEPES pH 7.5; for Km / kcat (KDM4D): FAS 20 μM, LAA 200 μM, 2OG 200 μM, NAD+ 500 μM, FDH 2.0 μM, mean ± SEM (n = 3); for kcat/KM (KDM4D): catalytic efficiency
# T1 construct: KDM4AM1-L359,[38]; KDM4DM1-L359,[39]; KDM4EM1-R336,[30]; His6 (N); made in house; host or cells: Escherichia coli
# T1 sequence (Q6B0I6 1-359): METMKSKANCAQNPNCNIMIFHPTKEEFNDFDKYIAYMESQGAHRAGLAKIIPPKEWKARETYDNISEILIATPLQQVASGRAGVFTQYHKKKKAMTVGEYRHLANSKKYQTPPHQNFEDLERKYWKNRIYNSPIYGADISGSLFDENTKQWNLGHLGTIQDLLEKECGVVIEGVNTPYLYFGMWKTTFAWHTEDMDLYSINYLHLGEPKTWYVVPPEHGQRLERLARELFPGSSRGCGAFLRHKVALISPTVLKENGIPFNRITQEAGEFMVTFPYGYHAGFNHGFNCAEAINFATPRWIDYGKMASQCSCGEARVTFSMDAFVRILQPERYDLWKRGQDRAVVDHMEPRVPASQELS
# Description: Kinetic parameters were determined by recording the initial reaction rates of NADH production at varying histone peptide concentrations (Fig. S24 and S25). The overall catalytic efficiencies (as measured by kcat/KM) gave the following rank orders for KDM4D: H1.5K26me3 (0.192 μM^−1 min^−1) > H1.3K24me3 (0.066 μM^−1 min^−1) ≈ H1.2K26me3 (0.063 μM^−1 min^−1) > H1.4K25me3 (0.044 μM^−1 min^−1). […] These rank orders differ somewhat from the initial screening results. However, given the complexities of 2OG oxygenase catalysis and the relatively low catalytic efficiencies observed, such apparent discrepancies are not unexpected.[28] It is also noteworthy that, in some instances, increased KM values correlate with elevated kcat values, resulting in similar kcat/KM ratios, particularly for H1.4K25me3 with KDM4D and H1.2K25me3 with KDM4E.
# (§1) Kinetic parameters for demethylation of N^ε-trimethylated H1 peptides by KDM4D and KDM4E (400 nM) measured using a formaldehyde dehydrogenase-coupled demethylation assay. H1 peptide (1–50 μM), FAS (20 μM), LAA (200 μM), 2OG (200 μM), NAD^+ (500 μM), KDM4 enzyme (0.8 μM) and FDH (2.0 μM) in HEPES buffer at pH 7.5. Each value is shown as mean ± SEM (n = 3)
# (§2) Substrate Km values for KDM4 enzymes were determined using a reported formaldehyde dehydrogenase/NAD coupled enzyme assay that quantifies formaldehyde production.[30] In brief, DNA encoding for wild-type full-length formaldehyde dehydrogenase was synthesised (by GenScript) and cloned into the pET-28B vector. The resultant plasmid was then transformed into the Rosetta strain of Escherichia coli. Coupled enzyme-assays were carried out in black polystyrene 384-well non-binding surface microplates (Corning) and kinetic measurements were obtained using a PHERAstar FS plate reader (BMG Labtech) equipped with a 350 nm excitation and 460 nm emission optic module.[30] All steps were performed in the assay buffer (50 mM HEPES pH 7.5, 0.01% (v/v) Tween-20). Substrate mixtures were prepared freshly and contained FAS (20 μM), LAA (200 μM), 2OG (200 μM), NAD^+ (500 μM), and H1 peptide (1–50 μM); they were dispensed (25 μL final volume) in triplicate. Assays were initiated by plate reader injection of 25 μL of a mixture of KDM4 (0.8 μM) and formaldehyde dehydrogenase (FDH) (2.0 μM) in assay buffer (50 mM HEPES pH 7.5, 0.01% (v/v) Tween-20). Production of NADH was measured at 60 second intervals over 25 cycles. Kinetic parameters were determined from the reaction rate during the initial linear phase of formaldehyde production, and specific activities were calculated from a formaldehyde standard curve and fitted to the Michaelis–Menten equation using GraphPad Prism Version 5.0 (GraphPad software, La Jolla, CA, USA). Each assay was carried out in triplicate with independently prepared reaction mixtures.
# KDM4E = target: T2, KDM4E (Homo sapiens, UniProt B2RXH2); assay: formaldehyde dehydrogenase (FDH)-coupled demethylation assay, KDM4E; type: biochemical; details: KDM4E (400 nM); for Km / kcat (KDM4E) / kcat/KM (KDM4E): FDH-coupled fluorescence assay, peptide 1–50 μM, HEPES pH 7.5; for Km / kcat (KDM4E): FAS 20 μM, LAA 200 μM, 2OG 200 μM, NAD+ 500 μM, FDH 2.0 μM, mean ± SEM (n = 3); for kcat/KM (KDM4E): catalytic efficiency; for substrate inhibition in Michaelis-Menten kinetics (KDM4E): FDH-coupled assay, Fig. S25
# T2 construct: KDM4DM1-L359,[39]; KDM4EM1-R336,[30]; His6 (N); made in house; host or cells: Escherichia coli
# T2 sequence (B2RXH2 1-336): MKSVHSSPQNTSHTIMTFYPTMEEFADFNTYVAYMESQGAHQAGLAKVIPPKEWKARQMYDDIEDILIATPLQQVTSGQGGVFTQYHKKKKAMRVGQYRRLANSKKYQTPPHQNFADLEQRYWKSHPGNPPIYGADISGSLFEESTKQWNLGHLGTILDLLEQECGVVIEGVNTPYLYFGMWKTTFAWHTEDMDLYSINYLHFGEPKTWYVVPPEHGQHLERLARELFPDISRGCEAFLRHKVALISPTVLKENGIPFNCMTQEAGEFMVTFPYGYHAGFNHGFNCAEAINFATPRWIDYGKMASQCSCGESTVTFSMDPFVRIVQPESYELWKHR
# Description: Kinetic parameters were determined by recording the initial reaction rates of NADH production at varying histone peptide concentrations (Fig. S24 and S25).
# as §1, with “7.5.” for “7.5. Each value is shown as mean ± SEM (n = 3)”
# as §2
Substance,Km (KDM4D),kcat (KDM4D) (KDM4D),kcat/KM (KDM4D) (KDM4D),Km (KDM4E),kcat (KDM4E) (KDM4E),kcat/KM (KDM4E) (KDM4E),substrate inhibition in Michaelis-Menten kinetics (KDM4E) (KDM4E)
"KKKAAK[Lys(Me3)]AGGTPRKA [Peptide H1.2K26me3, 15-mer linker histone H1.2 residues 20-34 peptide, tri-methylated K26]",4.6 ± 0.41 µM,0.00483 ± 0.00017 s⁻¹,1050 M⁻¹ s⁻¹,5.22 ± 0.54 µM,0.0313 ± 0.0015 s⁻¹,6000 M⁻¹ s⁻¹,–
"KKKAA[Lys(Me3)]KAGGTPRKA [Peptide H1.2K25me3, 15-mer linker histone H1.2 residues 20-34 peptide, tri-methylated K25]",–,–,–,18.5 ± 6.87 µM,0.0767 ± 0.0218 s⁻¹,4120 M⁻¹ s⁻¹,evidence for substrate inhibition
"KKKAR[Lys(Me3)]SAGAAKRKA [Peptide H1.4K25me3, 15-mer linker histone H1.4 residues 20-34 peptide, tri-methylated K25]",60 ± 24.3 µM,0.0443 ± 0.0152 s⁻¹,733 M⁻¹ s⁻¹,11.5 ± 3.19 µM,0.0435 ± 0.00783 s⁻¹,3770 M⁻¹ s⁻¹,evidence for substrate inhibition
"KKKATK[Lys(Me3)]AAGAGAAK [Peptide H1.5K26me3, 15-mer linker histone H1.5 residues 20-34 peptide, tri-methylated K26]",7.51 ± 0.77 µM,0.024 ± 0.0013 s⁻¹,3200 M⁻¹ s⁻¹,4.04 ± 0.51 µM,0.0218 ± 0.0013 s⁻¹,5400 M⁻¹ s⁻¹,–
"KKKA[Lys(Me3)]KAGATAGKRK [Peptide H1.3K24me3, 15-mer linker histone H1.3 residues 20-34 peptide, tri-methylated K24]",5.93 ± 0.69 µM,0.0065 ± 0.00033 s⁻¹,1100 M⁻¹ s⁻¹,6.45 ± 1.51 µM,0.0333 ± 0.00417 s⁻¹,5170 M⁻¹ s⁻¹,–
